Measured values reported in patent US5340814A, “3-substituted methyl-2,3-dihydroimidazo[1,2-C] quinazoline derivatives, the preparation and use thereof” (National Science Council, priority 1992, dated 1994).

Columns and labels:
[1] = target: T1, α2-adrenergic receptor (Rattus norvegicus, UniProt P22909); assay: α2-Adrenergic receptor binding, [^3 H] clonidine, rat brain cortex membranes; conditions: 1 nM [^3 H] clonidine, 10 mM MgCl2, pH 7.4, 30 min, room temperature
T1 construct: from tissue; host or cells: rat brain cortex, P2 membranes
T1 sequence (P22909 1-465): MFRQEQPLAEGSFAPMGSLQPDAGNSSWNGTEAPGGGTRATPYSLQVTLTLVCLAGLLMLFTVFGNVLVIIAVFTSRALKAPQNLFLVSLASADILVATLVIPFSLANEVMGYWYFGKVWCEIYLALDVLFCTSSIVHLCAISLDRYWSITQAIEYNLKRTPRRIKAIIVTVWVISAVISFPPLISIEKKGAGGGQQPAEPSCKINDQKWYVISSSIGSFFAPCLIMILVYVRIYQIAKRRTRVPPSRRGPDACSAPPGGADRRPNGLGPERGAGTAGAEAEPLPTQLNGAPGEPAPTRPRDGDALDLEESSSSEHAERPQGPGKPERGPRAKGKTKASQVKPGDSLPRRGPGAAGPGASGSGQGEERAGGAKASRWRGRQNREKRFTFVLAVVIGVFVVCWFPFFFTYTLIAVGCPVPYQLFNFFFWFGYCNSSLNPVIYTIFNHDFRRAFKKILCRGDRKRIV
Protocol: (§1) After the removal of nuclei by centrifugation at 1000×g for 10 min, P2 membranes were pelleted by centrifuging the supernatant at 22,000×g for 20 min. After two periods of centrifugation at 22,000×g and resuspension in fresh buffer, the membrane suspension (about 2 mg/ml protein) was ready for use. α1 -Adrenergic receptor binding assays (in triplicate) were carried out with 0.2 nM [^3 H] prazocin in a final volume of 1.0 ml of Tris buffer at pH 7.4 for 30 min at room temperature, using 10 μM phentolamine to determine non-specific binding. The concentrations of synthetic compounds for competition binding were in the range of 0.1-200 nM. α2 -adrenergic receptor binding assays (in triplicate) were carried out with 1 nM [^3 H] clonidine in the presence of 10 mM MgCl2 and in a final volume of 1.0 ml of Tris buffer at pH 7.4 for 30 min at room temperature, using 10 μM clonidine to determine non-specific binding. The concentrations of synthetic compounds for competition binding were in the range of 0.1-100 μM. […] The amount of membrane protein used in each assay was in the range of 300-400 μg, as determined by the method of Lowry et al. The results are given in Table 2. […] All other chemicals used were reagent grade and were purchased from Sigma (St. Louis, Mo.).

[2] = Antihypertensive activity in anesthetized cats (blood pressure); type: in vivo, cat; conditions: pentobarbital-anesthetized cats
Protocol: The pharmacological activities of the compounds of the present invention are described in the following experiment. In this experiment, the test compounds used are as follows.
Adult cats of either sex, 2-3 Kg, anesthetized with pentobarbital sodium (30 mg/Kg i.p.) were used. The trachea was intubated to provide artificial respiration with air by means of a Harvard respirator (respiration rate=6-20/min and colume=40-50 ml/stroke). Both femoral artery and vein were cannulated with PE 150 to monitor blood pressure and for drug administration respectively. Body temperature was maintained at 37.5° C. with a heating pad and monitored with a rectal thermometer. Blood pressure was measured with a Statham P23D pressure transducer via a polyethylene cannula conducted to a right femoral artery. Heart rate was measured through a Grass Model 7B tachograph preamplifier triggered by the pulses of arterial blood pressure. All data were recorded on a Grass Model 7B polygraph.

[3] = target: α1-Adrenergic receptor; assay: α1-Adrenergic receptor binding, [^3 H] prazosin, rat brain cortex membranes; conditions: 0.2 nM [^3 H] prazocin, pH 7.4, 30 min, room temperature
Protocol: as §1

[4] = acting as serotonin-S2 and α1-adrenoceptor antagonist, respectively; cited from earlier work

Row | SMILES | Ki [3] | MBP (2 hr) ([2]; dose 1 mg/Kg) | other results
1 | O=C1Nc2ccccc2C2=NCC(CN3CCN(c4ccccc4)CC3)N12 (stereo not drawn) [Example 17, 3-(4-Phenyl-1-piperazinyl)-methyl-2,3-dihydroimidazo[1,2-c]quinazolin-5(6H)-one] |  |  | Ki [1]: 962 ± 29 nM
2 | COc1ccccc1N1CCN(CC2CN=C3c4ccccc4N=C(SC)N32)CC1 (stereo not drawn) [Example 6, 3-{4-[1-(2-methoxyphenyl)piperazinyl]}methyl-5-methylthio-2,3-dihydroimidazo[1,2-c]quinazoline] | 0.54 ± 0.09 nM | 70 mmHg | 
3 | COC1=Nc2ccccc2C2=NCC(CN3CCN(c4ccccc4OC)CC3)N12 (stereo not drawn) [Example 12, 3-{4-[1-(2-Methoxyphenyl)piperazinyl]}methyl-5-methoxy-2,3-dihydroimidazo[1,2-c]quinazoline] | 0.07 ± 0.007 nM |  | 
4 | O=C(c1ccc(F)cc1)C1CCN(CCn2c(=S)[nH]c3ccccc3c2=O)CC1 [thioketanserin] |  |  | antihypertensive activity (in words), background art [4]: found to have antihypertensive activities
5 | COc1ccccc1N1CCN(CCn2c(=O)[nH]c3ccccc3c2=O)CC1.Cl [SGB-1534, reference compound] | 0.25 ± 0.06 nM |  | antihypertensive activity (in words), background art [4]: found to have antihypertensive activities
6 | COC1=Nc2ccccc2C2=NCC(CN3CCN(c4ccccc4Cl)CC3)N12 (stereo not drawn) [Example 16, 3-{4-[1-(2-chlorophenyl)piperazinyl]}methyl-5-methoxy-2,3-dihydroimidazo[1,2-c]quinazoline] |  | 23 mmHg | 
7 | COc1cccc(N2CCN(CC3CN=C4c5ccccc5N=C(SC)N43)CC2)c1 (stereo not drawn) [Example 7, 3-{4-[1-(3-methoxyphenyl)piperazinyl]}methyl-5-methylthio-2,3-dihydroimidazo[1,2-c]quinazoline] | 48.9 ± 20.4 nM |  | Ki [1]: 8360 ± 588 nM
8 | COC1=Nc2ccccc2C2=NCC(CN3CCN(c4cccc(OC)c4)CC3)N12 (stereo not drawn) [Example 14, 3-{4-[1-(3-methoxyphenyl)piperazinyl]}methyl-5-methoxy-2,3-dihydroimidazo[1,2-c]quinazoline] | > 100 nM |  | 
9 | CN1C(=O)N2C(=NCC2CN2CCN(c3ccccc3Cl)CC2)c2ccccc21 (stereo not drawn) [Example 22, 3-{4-[1-(2-chlorophenyl)piperazinyl]}methyl-6-methyl-2,3-dihydroimidazo[1,2-c]quinazolin-5(6H)-one] |  | 50 mmHg | 

Now from value to compound, other results behind:

Row | Ki [3] | SMILES | MBP (2 hr) ([2]; dose 1 mg/Kg) | other results
10 | 5.76 ± 0.48 nM | COc1cccc(N2CCN(CC3CN=C4c5ccccc5NC(=O)N43)CC2)c1 (stereo not drawn) [Example 19, 3-{4-[1-(3-methoxyphenyl)piperazinyl]}methyl-2,3-dihydroimidazo[1,2-c]-quinazolin-5(6H)-one] |  | 
11 | 0.45 ± 0.09 nM | COc1ccccc1N1CCN(CC2CN=C3c4ccccc4NC(=O)N32)CC1 (stereo not drawn) [Example 18, 3-{4-[1-(2-methoxyphenyl)piperazinyl]}methyl-2,3-dihydroimidazo[1,2-c]quinazolin-5(6H)-one] | 50 mmHg | 
12 | > 10 nM | CSC1=Nc2ccccc2C2=NCC(CN3CCN(c4ccccc4)CC3)N12 (stereo not drawn) [Example 5, 3-[4-(1-Phenyl)piperazinyl]methyl-5-methylthio-2,3-dihydroimidazo[1,2-c]quinazoline] |  | 
13 | 0.58 ± 0.07 nM | O=C1Nc2ccccc2C2=NCC(CN3CCN(c4ccccc4Cl)CC3)N12 (stereo not drawn) [Example 21, 3-{4-[1-(2-chlorophenyl)piperazinyl]}methyl-2,3-dihydroimidazo[1,2-c]quinazolin-5(6H)-one] | 35 mmHg | 
14 | 0.34 ± 0.06 nM | CSC1=Nc2ccccc2C2=NCC(CN3CCN(c4ccccc4Cl)CC3)N12 (stereo not drawn) [Example 9, 3-{4-[1-(2-chlorophenyl)piperazinyl]}methyl-5-methylthio-2,3-dihydroimidazo[1,2-c]quinazoline] | 30 mmHg | Ki [1]: 180 ± 7 nM
15 | 0.36 ± 0.05 nM | COc1ccccc1N1CCN(CC2CN=C3c4ccccc4N(C)C(=O)N32)CC1 (stereo not drawn) [Example 23, 3-{4-[1-(2-methoxyphenyl)piperazinyl]}methyl-6-methyl-2,3-dihydroimidazo[1,2-c]quinazolin-5(6H)-one] | 63 mmHg | MBP (2 hr) ([2]; dose 0.25 mg/Kg): 40 mmHg
